Each structure is given as a SMILES string.

For the first assay, the system named is HCV pseudoparticles. Kind of assay: HCV pseudoparticle infection assay (luciferase reporter, Huh7 cells). It is filed as cell-based, HCV (genotype 1b E1 and E2 envelope). As to conditions: Hepatitis C virus, genotype 1b, Huh-7, 48 h, HCV pseudoparticles (genotype 1b), luciferase activity 2 days after infection.
As to `C=CS(=O)(=O)NC(=O)CCCNC(=O)c1ccc(Nc2nc(NC3(c4ccc(Cl)cc4)CC3)nc(OCC(F)(F)F)n2)cc1` [Example 2017], the EC50 stood at 3.2 nM.
Regarding `CC(C)(CNC(=O)c1ccc(Nc2nc(NC3(c4ccc(Cl)cc4)CC3)nc(OCC(F)(F)F)n2)cc1)C(=O)NS(=O)(=O)C1CC1` [Example 2084], it took 6 nM to reach a half-maximal effect (EC50).
Turning to `CN(CC1(S(=O)(=O)NC(=O)c2ccc(Nc3nc(NC4(c5ccc(Cl)cc5)CC4)nc(OCC(F)(F)F)n3)cc2)CC1)c1ccccc1` [Example 1021], the EC50 is 94 nM.
For the compound `C=CS(=O)(=O)NC(=O)c1ccc(Nc2nc(NC3(c4ccc(Cl)cc4)CC3)nc(OCC(F)(F)F)n2)cc1` [Example 1004], a half-maximal response (EC50) required 5.3 nM.
Same read-out and setting: then `CCN(CC)CC1(C(=O)NS(=O)(=O)c2ccc(Nc3nc(NC4(c5ccc(Cl)cc5)CC4)nc(OCC(F)(F)F)n3)cc2)CC1` [Example 3004], with 1640 nM; and `CC(C)(C)OC(=O)N1CCC[C@H]1C(=O)NS(=O)(=O)CCNC(=O)c1ccc(Nc2nc(NC3(c4ccc(Cl)cc4)CC3)nc(OCC(F)(F)F)n2)cc1` [Example 4004], with 2.6 nM; and `CC(C)(C)CNCC1(C(=O)NS(=O)(=O)c2ccc(Nc3nc(NC4(c5ccc(Cl)cc5)CC4)nc(OCC(F)(F)F)n3)cc2)CC1` [Example 3007], with 2800 nM.

Staying with this assay, now noted: Hepatitis C virus, genotype 1b, Huh-7, 48 h, HCV pseudoparticles (genotype 1b), luciferase activity 2 days after infection, class.
`O=C(NCCS(=O)(=O)NC(=O)C1CC1)c1ccc(Nc2nc(NC3(c4ccc(Cl)cc4)CC3)nc(OCC(F)(F)F)n2)cc1` [Example 4002] returned an EC50 of 0.5 to 100 nM.
On the same count and under the same terms, in the case of `CN(C)S(=O)(=O)NC(=O)CCCCNC(=O)c1ccc(Nc2nc(NC3(c4ccc(Cl)cc4)CC3)nc(OCC(F)(F)F)n2)cc1` [Example 2030] it was 0.5 to 100 nM.
As to `CC1(C)CCN(CC2(S(=O)(=O)NC(=O)c3ccc(Nc4nc(NC5(c6ccc(Cl)cc6)CC5)nc(OCC(F)(F)F)n4)cc3)CC2)C1` [Example 1023], the EC50 is 0.5 to 100 nM.
The same measure, in the same setting: then `C=CS(=O)(=O)NC(=O)CCCNC(=O)c1ccc(Nc2nc(NC3(c4ccc(Cl)cc4)CC3)nc(OCC(F)(F)F)n2)cc1` [Example 2017], with 0.5 to 100 nM; and `O=C(NS(=O)(=O)C1(CO)CC1)c1ccc(Nc2nc(NC3(c4ccc(Cl)cc4)CC3)nc(OCC(F)(F)F)n2)cc1` [Example 1025, 4-(4-(1-(4-chlorophenyl)cyclopropylamino)-6-(2,2,2-trifluoroethoxy)-1,3,5-triazin-2-ylamino)-N-(1-(hydroxymethyl)cyclopropylsulfonyl)benzamide], with 0.5 to 100 nM.
The same measure, in the same setting: in the case of `O=C(NS(=O)(=O)C1(CN2CCN(c3ccncc3)CC2)CC1)c1ccc(Nc2nc(NC3(c4ccc(Cl)cc4)CC3)nc(OCC(F)(F)F)n2)cc1` [Example 1019] it was 0.5 to 100 nM; in that of `CCCC1(S(=O)(=O)NC(=O)c2ccc(Nc3nc(NC4(c5ccc(Cl)cc5)CC4)nc(OCC(F)(F)F)n3)cc2)CC1` [Example 1007], 0.5 to 100 nM; in that of `C=CS(=O)(=O)NC(=O)C1(CNC(=O)c2ccc(Nc3nc(NC4(c5ccc(Cl)cc5)CC4)nc(OCC(F)(F)F)n3)cc2)CC1` [Example 2072], 0.5 to 100 nM.
On the same count and under the same terms, in the case of `CC(C)(CNC(=O)c1ccc(Nc2nc(NC3(c4ccc(Cl)cc4)CC3)nc(OCC(F)(F)F)n2)cc1)C(=O)NS(=O)(=O)C1CC1` [Example 2084] it was 0.5 to 100 nM.
`O=C(NS(=O)(=O)CCN1CCCC1)c1ccc(Nc2nc(NC3(c4ccc(Cl)cc4)CC3)nc(OCC(F)(F)F)n2)cc1` [Example 1029, 4-(4-(1-(4-chlorophenyl)cyclopropylamino)-6-(2,2,2-trifluoroethoxy)-1,3,5-triazin-2-ylamino)-N-(2-(pyrrolidin-1-yl)ethylsulfonyl)benzamide] showed an EC50 of 0.5 to 100 nM.
Consider `CC(F)(F)CC(=O)NS(=O)(=O)CCNC(=O)c1ccc(Nc2nc(NC3(c4ccc(Cl)cc4)CC3)nc(OCC(F)(F)F)n2)cc1` [Example 4003], for which the concentration giving a half-maximal response (EC50) lay within 0.5 to 100 nM.
`Cc1ccc(C(=O)N2CCN(c3nc(Nc4ccc(C(=O)NS(=O)(=O)C5(CN(C)C)CC5)cc4)nc(OCC(F)(F)F)n3)CC2)cc1` [Example 8027]: the EC50 lay in the range of 1000 to 5000 nM.
The same measure, in the same setting: in the case of `O=C(NS(=O)(=O)C1(Cc2ccccc2F)CC1)c1ccc(Nc2nc(NC3(c4ccc(Cl)cc4)CC3)nc(OCC(F)(F)F)n2)cc1` [Example 8016] it was 0.5 to 100 nM.
The same measure, in the same setting: in the case of `CN(CC1(S(=O)(=O)NC(=O)c2ccc(Nc3nc(NC4(c5ccc(Cl)cc5)CC4)nc(OCC(F)(F)F)n3)cc2)CC1)c1ccccc1` [Example 1021] it was 0.5 to 100 nM; in that of `O=C(CCCNC(=O)c1ccc(Nc2nc(NC3(c4ccc(Cl)cc4)CC3)nc(OCC(F)(F)F)n2)cc1)N[C@]1(C(=O)NS(=O)(=O)C2CCC2)C[C@H]1C1CC1` [Example 2042], 0.5 to 100 nM; in that of `C=C[C@@H]1C[C@]1(NC(=O)CCCNC(=O)c1ccc(Nc2nc(NC3(c4ccc(Cl)cc4)CC3)nc(OCC(F)(F)F)n2)cc1)C(=O)NS(=O)(=O)C(C)(C)C` [Example 2035], 0.5 to 100 nM.
Same read-out and setting: in the case of `CC(C)(CNC(=O)c1ccc(Nc2nc(NC3(c4ccc(Cl)cc4)CC3)nc(OCC(F)(F)F)n2)cc1)C(=O)NS(=O)(=O)C1CCC1` [Example 2089] it was 0.5 to 100 nM; in that of `CNC(=O)NCCS(=O)(=O)NC(=O)c1ccc(Nc2nc(NC3(c4ccc(Cl)cc4)CC3)nc(OCC(F)(F)F)n2)cc1` [Example 1047], 0.5 to 100 nM.
`O=C(CCCCNC(=O)c1ccc(Nc2nc(NC3(c4ccc(Cl)cc4)CC3)nc(OCC(F)(F)F)n2)cc1)NC1(C(=O)NS(=O)(=O)C2CC2)CC1` [Example 2029] had a concentration for a half-maximal effect (EC50) of 0.5 to 100 nM.
For the compound `CN(C)S(=O)(=O)NC(=O)CCNC(=O)c1ccc(Nc2nc(NC3(c4ccc(Cl)cc4)CC3)nc(OCC(F)(F)F)n2)cc1` [Example 2022], the EC50 is 0.5 to 100 nM.
On the same count and under the same terms, in the case of `CS(=O)(=O)NC(=O)[C@@]1(NC(=O)CCCNC(=O)c2ccc(Nc3nc(NC4(c5ccc(Cl)cc5)CC4)nc(OCC(F)(F)F)n3)cc2)C[C@H]1C1CC1(F)F` (stereo partly drawn) [Example 2046] it was 0.5 to 100 nM; in that of `CC(C)(C)CNCCS(=O)(=O)NC(=O)c1ccc(Nc2nc(NC3(c4ccc(Cl)cc4)CC3)nc(OCC(F)(F)F)n2)cc1` [Example 1033], 0.5 to 100 nM.
On the same count and under the same terms, in the case of `CC(C)S(=O)(=O)NC(=O)[C@@]1(NC(=O)CCCNC(=O)c2ccc(Nc3nc(NC4(c5ccc(Cl)cc5)CC4)nc(OCC(F)(F)F)n3)cc2)C[C@H]1C1CC1(F)F` (stereo partly drawn) [Example 2048] it was 0.5 to 100 nM.
`Cc1cccc(S(=O)(=O)N2CCN(c3nc(Nc4ccc(C(=O)NS(=O)(=O)C5(CN(C)C)CC5)cc4)nc(OCC(F)(F)F)n3)CC2)c1` [Example 8032] registered a concentration for a half-maximal effect (EC50) of 1000 to 5000 nM.
Same read-out and setting: then `CC(C)(C)OC(=O)NC[C@H](NC(=O)c1ccc(Nc2nc(NC3(c4ccc(Cl)cc4)CC3)nc(OCC(F)(F)F)n2)cc1)C(=O)NS(=O)(=O)C1CC1` [Example 2096], with 0.5 to 100 nM; and `C=C[C@@H]1C[C@]1(NC(=O)CCCCNC(=O)c1ccc(Nc2nc(NC3(c4ccc(Cl)cc4)CC3)nc(OCC(F)(F)F)n2)cc1)C(=O)NS(=O)(=O)C1CC1` [Example 2031], with 0.5 to 100 nM.
As to `Cn1cnc(C[C@H](NC(=O)c2ccc(Nc3nc(NC4(c5ccc(Cl)cc5)CC4)nc(OCC(F)(F)F)n3)cc2)C(=O)N[C@]2(C(=O)NS(=O)(=O)C(C)(C)C)C[C@H]2C2CC2)c1` [Example 8021], the EC50 is 0.5 to 100 nM.
Same read-out and setting: then `C[C@H](NC(=O)CCCNC(=O)c1ccc(Nc2nc(NC3(c4ccc(Cl)cc4)CC3)nc(OCC(F)(F)F)n2)cc1)C(=O)NS(=O)(=O)C1CCC1` [Example 2058], with 0.5 to 100 nM.
Same read-out and setting: in the case of `O=C(CCCCNC(=O)c1ccc(Nc2nc(NC3(c4ccc(Cl)cc4)CC3)nc(OCC(F)(F)F)n2)cc1)NS(=O)(=O)C1CCC1` [Example 2028] it was 0.5 to 100 nM.
Take `C=CS(=O)(=O)NC(=O)c1ccc(Nc2nc(NC3(c4ccc(Cl)cc4)CC3)nc(OCC(F)(F)F)n2)cc1` [Example 1004]: the EC50 lay in the range of 0.5 to 100 nM.
The compound `CC(C)(C)S(=O)(=O)NC(=O)[C@@]1(NC(=O)CCCNC(=O)c2ccc(Nc3nc(NC4(c5ccc(Cl)cc5)CC4)nc(OCC(F)(F)F)n3)cc2)C[C@H]1C1CC1(F)F` (stereo partly drawn) [Example 2050] gave a half-maximal effective concentration (EC50) of 0.5 to 100 nM.
On the same count and under the same terms, then `O=C(NS(=O)(=O)C1CC1)c1ccc(Nc2nc(NC3(c4ccc(Cl)cc4)CC3)nc(OCC(F)(F)F)n2)cc1` [Example 1001], with 0.5 to 100 nM.
The same measure, in the same setting: in the case of `CCN(CC)CC1(C(=O)NS(=O)(=O)c2ccc(Nc3nc(NC4(c5ccc(Cl)cc5)CC4)nc(OCC(F)(F)F)n3)cc2)CC1` [Example 3004] it was 1000 to 5000 nM; in that of `CC(C)(C)OC(=O)N1CCC[C@H]1C(=O)NS(=O)(=O)CCNC(=O)c1ccc(Nc2nc(NC3(c4ccc(Cl)cc4)CC3)nc(OCC(F)(F)F)n2)cc1` [Example 4004], 0.5 to 100 nM.
`COC(=O)NCCS(=O)(=O)NC(=O)c1ccc(Nc2nc(NC3(c4ccc(Cl)cc4)CC3)nc(OCC(F)(F)F)n2)cc1` [Example 1044] yielded a half-maximal effective concentration (EC50) of 0.5 to 100 nM.
Still for that read-out and setting: then `CC(C)(C)CNCC1(C(=O)NS(=O)(=O)c2ccc(Nc3nc(NC4(c5ccc(Cl)cc5)CC4)nc(OCC(F)(F)F)n3)cc2)CC1` [Example 3007], with 1000 to 5000 nM; and `CCCC1(S(=O)(=O)NC(=O)C(C)(C)CNC(=O)c2ccc(Nc3nc(NC4(c5ccc(Cl)cc5)CC4)nc(OCC(F)(F)F)n3)cc2)CC1` [Example 2092], with 0.5 to 100 nM; and `C=C[C@@H]1C[C@]1(NC(=O)C1(CNC(=O)c2ccc(Nc3nc(NC4(c5ccc(Cl)cc5)CC4)nc(OCC(F)(F)F)n3)cc2)CC1)C(=O)NS(=O)(=O)C1CCC1` [Example 2069], with 0.5 to 100 nM.
`CN(C)S(=O)(=O)NC(=O)CCCNC(=O)c1ccc(Nc2nc(NC3(c4ccc(Cl)cc4)CC3)nc(OCC(F)(F)F)n2)cc1` [Example 2025] had an EC50 of 0.5 to 100 nM.
`CC(C)S(=O)(=O)NC(=O)C(C)(C)CNC(=O)c1ccc(Nc2nc(NC3(c4ccc(Cl)cc4)CC3)nc(OCC(F)(F)F)n2)cc1` [Example 2088]: the EC50 was 0.5 to 100 nM.
Compound `O=C(NS(=O)(=O)CCCCl)c1ccc(Nc2nc(NC3(c4ccc(Cl)cc4)CC3)nc(OCC(F)(F)F)n2)cc1` [Example 1009] came in with an EC50 of 0.5 to 100 nM.
For the compound `C=C[C@@H]1C[C@]1(NC(=O)CCCCNC(=O)c1ccc(Nc2nc(NC3(c4ccc(Cl)cc4)CC3)nc(OCC(F)(F)F)n2)cc1)C(=O)NS(=O)(=O)C(C)(C)C` [Example 2027], the EC50 fell in the range of 0.5 to 100 nM.
The same measure, in the same setting: then `O=C(NCC1(C(=O)NC2(C(=O)NS(=O)(=O)C3CC3)CC2)CC1)c1ccc(Nc2nc(NC3(c4ccc(Cl)cc4)CC3)nc(OCC(F)(F)F)n2)cc1` [Example 2067], with 0.5 to 100 nM; and `CC(C)(C)S(=O)(=O)NC(=O)C1(CNC(=O)c2ccc(Nc3nc(NC4(c5ccc(Cl)cc5)CC4)nc(OCC(F)(F)F)n3)cc2)CC1` [Example 2075], with 0.5 to 100 nM; and `CCS(=O)(=O)NC(=O)C(C)(C)CNC(=O)c1ccc(Nc2nc(NC3(c4ccc(Cl)cc4)CC3)nc(OCC(F)(F)F)n2)cc1` [Example 2087], with 0.5 to 100 nM.
The same measure, in the same setting: in the case of `CC(C)(CNC(=O)c1ccc(Nc2nc(NC3(c4ccc(Cl)cc4)CC3)nc(OCC(F)(F)F)n2)cc1)C(=O)NS(=O)(=O)C(C)(C)C` [Example 2090] it was 0.5 to 100 nM; in that of `CN(CC1(S(=O)(=O)NC(=O)c2ccc(Nc3nc(NC4(c5ccc(Cl)cc5)CC4)nc(OCC(F)(F)F)n3)cc2)CC1)C1CC1` [Example 1022], 0.5 to 100 nM.

By EC50 is commonly meant the concentration giving half of the maximal effect. A lower EC50 goes with an effect from little substance.
